# Measurements published in PubChem BioAssay (NCI).
#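 Here, GI50 denotes the concentration required for 50% inhibition of growth. TGI marks complete inhibition of growth.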
# Key:
# Test in all cases: inhibition of tumour cell growth, NCI panel, 384-well format
# NCI-H460 NSCLC = system: NCI-H460 NSCLC
# SNB-75 CNS = system: SNB-75 CNS
# MOLT-4 leukemia = system: MOLT-4 leukemia
# MDA-MB-435 melanoma = system: MDA-MB-435 melanoma
# OVCAR-5 ovarian = system: OVCAR-5 ovarian
# OVCAR-8 ovarian = system: OVCAR-8 ovarian
# OVCAR-4 ovarian = system: OVCAR-4 ovarian
# HT29 colon = system: HT29 colon
# RXF 393 renal = system: RXF 393 renal
# A498 renal = system: A498 renal
# IGROV1 ovarian = system: IGROV1 ovarian
# U251 glioblastoma = system: U251 glioblastoma
# SK-OV-3 ovarian = system: SK-OV-3 ovarian
# SF-295 CNS = system: SF-295 CNS
# K-562 leukemia = system: K-562 leukemia
# NCI-H226 lung = system: NCI-H226 lung
# PC-3 prostate = system: PC-3 prostate
# NCI-H23 lung = system: NCI-H23 lung
# SR leukemia = system: SR leukemia
# BT-549 breast = system: BT-549 breast
# MDA-MB-468 breast = system: MDA-MB-468 breast
# TK-10 renal = system: TK-10 renal
# 786-0 renal = system: 786-0 renal
# SF-539 CNS = system: SF-539 CNS
# KM12 colon = system: KM12 colon
# NCI-H322M lung = system: NCI-H322M lung
# UACC-257 melanoma = system: UACC-257 melanoma
# SF-268 CNS = system: SF-268 CNS
smiles,measurement,setting,value
COc1cccc2c1nc(C(F)F)n2-c1nc(-c2ccc(NS(=O)(=O)CCN(C)C)cc2)nc(N2CCOCC2)n1,TGI,NCI-H460 NSCLC,1550 nM
same,GI50,SNB-75 CNS,29.6 nM
same,TGI,SNB-75 CNS,361 nM
same,GI50,MOLT-4 leukemia,46.8 nM
same,TGI,MOLT-4 leukemia,176 nM
same,GI50,MDA-MB-435 melanoma,255 nM
same,TGI,MDA-MB-435 melanoma,1390 nM
same,GI50,OVCAR-5 ovarian,266 nM
same,TGI,OVCAR-5 ovarian,5440 nM
same,GI50,OVCAR-8 ovarian,323 nM
same,TGI,OVCAR-8 ovarian,1590 nM
same,GI50,OVCAR-4 ovarian,144 nM
same,TGI,OVCAR-4 ovarian,1550 nM
same,GI50,HT29 colon,238 nM
same,TGI,HT29 colon,1470 nM
same,GI50,RXF 393 renal,22.4 nM
same,TGI,RXF 393 renal,364 nM
same,GI50,A498 renal,171 nM
same,TGI,A498 renal,961 nM
same,GI50,IGROV1 ovarian,24.9 nM
same,TGI,IGROV1 ovarian,96.3 nM
same,GI50,U251 glioblastoma,1020 nM
same,TGI,U251 glioblastoma,2200 nM
same,GI50,SK-OV-3 ovarian,83.5 nM
same,TGI,SK-OV-3 ovarian,362 nM
same,GI50,SF-295 CNS,161 nM
same,TGI,SF-295 CNS,1100 nM
same,GI50,K-562 leukemia,634 nM
same,TGI,K-562 leukemia,1950 nM
same,GI50,NCI-H226 lung,195 nM
same,TGI,NCI-H226 lung,873 nM
same,GI50,PC-3 prostate,122 nM
same,TGI,PC-3 prostate,1200 nM
same,GI50,NCI-H23 lung,148 nM
same,TGI,NCI-H23 lung,1040 nM
same,GI50,SR leukemia,153 nM
same,TGI,SR leukemia,408 nM
same,GI50,BT-549 breast,250 nM
same,TGI,BT-549 breast,1400 nM
same,GI50,MDA-MB-468 breast,76.2 nM
same,TGI,MDA-MB-468 breast,431 nM
same,GI50,TK-10 renal,127 nM
same,TGI,TK-10 renal,1220 nM
same,GI50,786-0 renal,491 nM
same,TGI,786-0 renal,1690 nM
same,GI50,SF-539 CNS,179 nM
same,TGI,SF-539 CNS,1230 nM
same,GI50,KM12 colon,110 nM
same,TGI,KM12 colon,1220 nM
same,GI50,NCI-H322M lung,151 nM
same,TGI,NCI-H322M lung,1090 nM
same,GI50,UACC-257 melanoma,292 nM
same,TGI,UACC-257 melanoma,1360 nM
same,GI50,SF-268 CNS,374 nM
same,TGI,SF-268 CNS,1780 nM
